Data: patent US4454140A, “Nasal administration of dextromethorphan” (Hoffmann-La Roche Inc., priority 1982, dated 1984)
Values joined by “and” are separate entries in the source; they are usually repeats but may differ in a detail not shown here. Equal values may be shown once. Read-outs that look alike come from different tables or passages of the source.

Assay: bioavailability of dextromethorphan after nasal, oral and intravenous administration (plasma levels, spectrofluorophotometric)
Assay type: in vivo, female beagle dogs
Conditions: for AUC(0-t) at 2 h / concentration at 1 min / concentration at 0.05 h / concentration at 0.1 h / concentration at 0.2 h / concentration at 20 min / concentration at 35 min / concentration at 55 min / concentration at 80 min / concentration at 2 h / bioavailability at 2 h / concentration at 3 h: dog, plasma, 15 mg; for AUC(0-t) at 2 h / AUC 0-120 min., Individual AUC: 15 mg/dog; for concentration at 1 min / concentration at 0.05 h / concentration at 0.1 h / concentration at 0.2 h / concentration at 20 min / concentration at 35 min / concentration at 55 min / concentration at 80 min / concentration at 2 h / concentration at 3 h / Plasma Concentration: HBr salt 15 mg/dog; for bioavailability at 2 h: relative to intravenous, 0-120 min
Procedure: The following study was undertaken to determine the bioavailability of dextromethorphan from nasal solution in comparison with the bioavailability of the drug when administered orally and intravenously.
Three female beagle dogs weighing about 10 kg each were used for the study without fasting. For nasal administration, the dogs were anaesthetized with an intravenous injection of 30 mg/kg of sodium pentobarbital, and 0.5 ml of a warm saline solution containing dextromethorphan (30 mg/ml) was then administered to the nasal cavity through the nostrils with a syringe. For oral administration, the dogs were not anaesthetized and 10 ml of a saline solution containing dextromethorphan hydrobromide (1.5 mg/ml) was administered via a stomach tube. For intravenous administration, the dogs were anaesthetized as noted above, and one ml of a saline solution containing dextromethorphan hydrobromide (15 mg/ml) was injected through the cubital vein.
After nasal, oral, and intravenous administration, blood was sampled from the cubital vein periodically. The blood sample, was centrifuged and 2.5 ml of plasma were analyzed. Plasma levels of dextromethorphan were determined spectrofluorophotometrically by a modification of the method of Ramachander, et al., J. Pharm. Sci., 66, 1047 (1977). Specifically, plasma was transferred into a glass tube, 0.5 ml of a saturated solution of sodium carbonate and 10 ml of ethyl acetate were added, and the contents shaken well. After centrifuging, an aliquot (8 ml) of the supernate was transferred into a glass tube containing 1.5 ml of 1.0N HCl, and was extracted into the acid layer after mixing well and centrifuging. The fluorescence of the acid layer was determined by a spectrofluorophotometer, Aminco-Bowman Ratio II, American Instrument Co. The excitation and emission wave lengths were 278 nm and 306 nm, respectively. Recovery of known amounts of dextromethorphan spiked with dog plasma was 50% of the added concentration. For calculating the drug plasma level, the above correction factor was taken into consideration.
Table I reports the plasma concentration of dextromethorphan after nasal, intravenous, and oral administration of 15 mg/dog of dextromethorphan hydrobromide salt.

SMILES: COc1ccc2c(c1)[C@]13CCCC[C@@H]1[C@H](C2)N(C)CC3 [dextromethorphan, d-3-methoxy-N-methylmorphinan]
- AUC(0-t) at 2 h (nasal, average of three dogs, read-out: AUC 0-120 min., Average ± S.E. (converted)): 472 ng·h/mL
- concentration at 1 min (nasal, dog #1, 1 min): 72.1 ng/mL
- concentration at 0.05 h (nasal, dog #1, 3 min): 323 ng/mL
- concentration at 0.1 h (nasal, dog #1, 6 min): 618 ng/mL
- concentration at 0.2 h (nasal, dog #1, 12 min): 684 ng/mL
- concentration at 20 min (nasal, dog #1, 20 min): 503 ng/mL
- concentration at 35 min (nasal, dog #1, 35 min): 276 ng/mL
- concentration at 55 min (nasal, dog #1, 55 min): 240 ng/mL
- concentration at 80 min (nasal, dog #1, 80 min): 201 ng/mL
- concentration at 2 h (nasal, dog #1, 120 min): 154 ng/mL
- concentration at 1 min (nasal, dog #2, 1 min): 89.1 ng/mL
- concentration at 0.05 h (nasal, dog #2, 3 min): 793 ng/mL
- concentration at 0.1 h (nasal, dog #2, 6 min): 733 ng/mL
- concentration at 0.2 h (nasal, dog #2, 12 min): 888 ng/mL
- concentration at 20 min (nasal, dog #2, 20 min): 260 ng/mL
- concentration at 35 min (nasal, dog #2, 35 min): 201 ng/mL
- concentration at 55 min (nasal, dog #2, 55 min): 170 ng/mL
- concentration at 80 min (nasal, dog #2, 80 min): 183 ng/mL
- concentration at 2 h (nasal, dog #2, 120 min): 141 ng/mL
- concentration at 1 min (nasal, dog #3, 1 min): 84.2 ng/mL
- concentration at 0.05 h (nasal, dog #3, 3 min): 428 ng/mL
- concentration at 0.1 h (nasal, dog #3, 6 min): 493 ng/mL
- concentration at 0.2 h (nasal, dog #3, 12 min): 385 ng/mL
- concentration at 20 min (nasal, dog #3, 20 min): 263 ng/mL
- concentration at 35 min (nasal, dog #3, 35 min): 165 ng/mL
- concentration at 55 min (nasal, dog #3, 55 min): 129 ng/mL
- concentration at 80 min (nasal, dog #3, 80 min): 93.3 ng/mL
- concentration at 2 h (nasal, dog #3, 120 min): 108 ng/mL
- AUC(0-t) at 2 h (nasal, individual dogs, read-out: AUC 0-120 min., Individual AUC (converted)): 568 ng·h/mL
- bioavailability at 2 h (nasal): 110%
- bioavailability at 2 h (oral): 30.2%
- concentration at 1 min (iv, dog #1, 1 min): 1530 ng/mL
- concentration at 0.05 h (iv, dog #1, 3 min): 927 ng/mL
- concentration at 0.1 h (iv, dog #1, 6 min): 708 ng/mL
- concentration at 0.2 h (iv, dog #1, 12 min): 482 ng/mL
- concentration at 20 min (iv, dog #1, 20 min): 331 ng/mL
- concentration at 35 min (iv, dog #1, 35 min): 296 ng/mL
- concentration at 55 min (iv, dog #1, 55 min): 171 ng/mL
- concentration at 80 min (iv, dog #1, 80 min): 134 ng/mL
- concentration at 2 h (iv, dog #1, 120 min): 144 ng/mL
- concentration at 1 min (iv, dog #2, 1 min): 1590 ng/mL
- concentration at 0.05 h (iv, dog #2, 3 min): 952 ng/mL
- concentration at 0.1 h (iv, dog #2, 6 min): 532 ng/mL
- concentration at 0.2 h (iv, dog #2, 12 min): 349 ng/mL
- concentration at 20 min (iv, dog #2, 20 min): 229 ng/mL
- concentration at 35 min (iv, dog #2, 35 min): 166 ng/mL
- concentration at 55 min (iv, dog #2, 55 min): 146 ng/mL
- concentration at 80 min (iv, dog #2, 80 min): 165 ng/mL
- concentration at 2 h (iv, dog #2, 120 min): 141 ng/mL
- concentration at 1 min (iv, dog #3, 1 min): 1490 ng/mL
- concentration at 0.05 h (iv, dog #3, 3 min): 907 ng/mL
- concentration at 0.1 h (iv, dog #3, 6 min): 430 ng/mL
- concentration at 0.2 h (iv, dog #3, 12 min): 322 ng/mL
- concentration at 20 min (iv, dog #3, 20 min): 187 ng/mL
- concentration at 35 min (iv, dog #3, 35 min): 102 ng/mL
- concentration at 55 min (iv, dog #3, 55 min): 81.4 ng/mL
- concentration at 80 min (iv, dog #3, 80 min): 46.2 ng/mL
- concentration at 2 h (iv, dog #3, 120 min): 37.3 ng/mL
- AUC(0-t) at 2 h (iv, intravenous, average of three dogs, read-out: AUC 0-120 min., Average ± S.E. (converted)): 431 ng·h/mL
- AUC(0-t) at 2 h (iv, intravenous, individual dogs, read-out: AUC 0-120 min., Individual AUC (converted)): 537 ng·h/mL
- concentration at 20 min (po, dog #1, 20 min): 7.5 ng/mL
- concentration at 35 min (po, dog #1, 35 min): 43.4 ng/mL
- concentration at 55 min (po, dog #1, 55 min): 73.6 ng/mL
- concentration at 80 min (po, dog #1, 80 min): 80.1 ng/mL
- concentration at 2 h (po, dog #1, 120 min): 74.7 ng/mL
- concentration at 3 h (po, dog #1, 180 min): 63.3 ng/mL
- concentration at 0.1 h (po, dog #2, 6 min): 18.5 ng/mL
- concentration at 0.2 h (po, dog #2, 12 min): 40 ng/mL
- concentration at 20 min (po, dog #2, 20 min): 62.9 ng/mL
- concentration at 35 min (po, dog #2, 35 min): 94.4 ng/mL
- concentration at 55 min (po, dog #2, 55 min): 92.3 ng/mL
- concentration at 80 min (po, dog #2, 80 min): 86.8 ng/mL
- concentration at 2 h (po, dog #2, 120 min): 86 ng/mL
- concentration at 3 h (po, dog #2, 180 min): 85.7 ng/mL
- concentration at 20 min (po, dog #3, 20 min): 18.4 ng/mL
- concentration at 35 min (po, dog #3, 35 min): 47.6 ng/mL
- concentration at 55 min (po, dog #3, 55 min): 65 ng/mL
- concentration at 80 min (po, dog #3, 80 min): 95.5 ng/mL
- concentration at 2 h (po, dog #3, 120 min): 91.5 ng/mL
- concentration at 3 h (po, dog #3, 180 min): 53.4 ng/mL
- AUC(0-t) at 2 h (po, oral, average of three dogs, read-out: AUC 0-120 min., Average ± S.E. (converted)): 130 ng·h/mL
- AUC(0-t) at 2 h (po, oral, individual dogs, read-out: AUC 0-120 min., Individual AUC (converted)): 110 ng·h/mL
- AUC 0-120 min., Individual AUC (intravenous, individual dogs): 27597.7 ng eq. ml-^1 min and 17668.5 ng eq. ml-^1 min
- absorption after nasal administration vs standard oral route (nasal vs oral): more rapid and more complete absorption
- blood level after nasal administration (nasal, 15 mg dose, about 5 minutes to about 2 hours, vs injected dose (FIG. 1)): blood levels comparable to an injected dose
- AUC 0-120 min., Individual AUC (nasal, individual dogs): 30735.4 ng eq. ml-^1 min and 20139.0 ng eq. ml-^1 min
- Plasma Concentration (oral, dog #1, 1 min): 0 ng eq./ml
- Plasma Concentration (oral, dog #1, 3 min): 0 ng eq./ml
- Plasma Concentration (oral, dog #1, 6 min): 0 ng eq./ml
- Plasma Concentration (oral, dog #1, 12 min): 0 ng eq./ml
- Plasma Concentration (oral, dog #2, 1 min): 0 ng eq./ml
- Plasma Concentration (oral, dog #2, 3 min): 0 ng eq./ml
- Plasma Concentration (oral, dog #3, 1 min): 0 ng eq./ml
- Plasma Concentration (oral, dog #3, 3 min): 0 ng eq./ml
- Plasma Concentration (oral, dog #3, 6 min): 0 ng eq./ml
- Plasma Concentration (oral, dog #3, 12 min): 0 ng eq./ml
- AUC 0-120 min., Individual AUC (oral, individual dogs): 9356.5 ng eq. ml-^1 min and 7441.6 ng eq. ml-^1 min
- blood level after oral administration (oral, same dosage level (15 mg), FIG. 1): considerably lower blood levels
